Patent US4734418A, “Quinazoline compounds and antihypertensives” (priority 1984, dated 1988)
Where two headings read alike, the source gives them in different places. One block for each molecule: values may come before it.

What was measured:
[1] = solubility in DMSO (NMR not measured); assay type: physicochemical; conditions: HCl salt
[2] = system: Spontaneously Hypertensive Rats; test: Test 1: antihypertensive effects (systolic tail artery blood pressure) and heart rate in spontaneously hypertensive rats, oral; assay type: in vivo, rat (male, SHR); conditions: for change in vivo at 1 mg/kg: Rattus norvegicus; for Change (%) in heart rate: maximum value
In short: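 Male SHRs aged 20 weeks or older (350-430 g), with systolic pressure of 180 mmHg or higher, were used in groups of 3-4. Compounds in 0.5% methylcellulose were given orally, mostly at 1 mg/Kg. Systolic tail-artery blood pressure and heart rate were measured together as percent change.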

Mouse = test: Test 2: acute toxicity, mouse, oral; assay type: in vivo, male ddy-mice; conditions: fourteenth day
Experimental: (§1) The acute toxicity of certain compounds of this invention were studied in the following manner.
(§2) Namely, male ddy-mice of 5 weeks of age and male Wister rats of 8 weeks of age were fasted for 18 hours and used in groups each of which was constituted of 4-5 of mice or rats. The compounds were each dissolved or suspended in a 0.5% methylcellulose solution and administered orally (P.O.). On the fourteenth day after the administration, their toxicity were judged.
(§3) Each numeral set indicates the number of dead animals/the number of teste
(§4) animals. Hyphens (--) indicate that no tests were effected.

Rat = test: Test 2: acute toxicity, rat, oral; assay type: in vivo, male Wister rats; conditions: fourteenth day
Experimental: as §1, §2, §3, §4

[3] = SHR, oral 1 mg/Kg, 1 hour, read-out: Antihypertensive effects, change (%) in blood pressure, 1 hour later
[4] = SHR, oral 1 mg/Kg, 3 hours, read-out: Antihypertensive effects, change (%) in blood pressure, 3 hours later
[5] = SHR, oral 1 mg/Kg, 6 hours, read-out: Antihypertensive effects, change (%) in blood pressure, 6 hours later
[6] = SHR, oral 1 mg/Kg, 24 hours, read-out: Antihypertensive effects, change (%) in blood pressure, 24 hours later

- solubility in DMSO [1]: insolubility
Compound: COc1cc2nc(N3CCN(c4ncc5c(n4)CNC5=O)CC3)nc(N)c2cc1OC [Example 22]
- change in vivo at 1 mg/kg [2, 3]: -1.5%
- change in vivo at 1 mg/kg [2, 4]: -10.1%
- change in vivo at 1 mg/kg [2, 5]: -17.1%
- change in vivo at 1 mg/kg [2, 6]: -4%
- Change (%) in heart rate ([2]; SHR, oral 1 mg/Kg): +17.7%

Compound: COc1cc2nc(N3CCN(c4ncc5c(n4)N(C)C(=O)C5)CC3)nc(N)c2cc1OC [Example 29]
- Acute Toxicity, number of dead animals/number of tested animals (Mouse; 1 g/Kg P.O.): 0/5
- Acute Toxicity, number of dead animals/number of tested animals (Mouse; 3 g/Kg P.O.): 0/5
- change in vivo at 1 mg/kg [2, 3]: -5.2%
- change in vivo at 1 mg/kg [2, 4]: -23%
- change in vivo at 1 mg/kg [2, 5]: -35.2%
- change in vivo at 1 mg/kg [2, 6]: -13.1%
- Change (%) in heart rate ([2]; SHR, oral 1 mg/Kg): +10.1%
- Acute Toxicity, number of dead animals/number of tested animals (Rat; 1 g/Kg P.O.): 0/5
- Acute Toxicity, number of dead animals/number of tested animals (Rat; 3 g/Kg P.O.): 0/4

Compound: CCn1ccc2nc(N3CCN(c4nc(N)c5cc(OC)c(OC)cc5n4)CC3)ncc2c1=O [Example 1, 4-Amino-6,7-dimethoxy-2-(4-(5,6-dihydro-6-ethyl-5-oxopyrido[4,3-d]pyrimidin-2-yl)piperazino)quinazoline]
- Acute Toxicity, number of dead animals/number of tested animals (Mouse; 1 g/Kg P.O.): 0/5
- Acute Toxicity, number of dead animals/number of tested animals (Mouse; 3 g/Kg P.O.): 0/5
- change in vivo at 1 mg/kg [2, 3]: -10.7%
- change in vivo at 1 mg/kg [2, 4]: -17.3%
- change in vivo at 1 mg/kg [2, 5]: -23%
- change in vivo at 1 mg/kg [2, 6]: -8.2%
- Change (%) in heart rate ([2]; SHR, oral 1 mg/Kg): +4.1%
- Acute Toxicity, number of dead animals/number of tested animals (Rat; 1 g/Kg P.O.): 0/5
- Acute Toxicity, number of dead animals/number of tested animals (Rat; 3 g/Kg P.O.): 0/5

Compound: COc1cc2nc(N3CCN(c4ncc5c(n4)CN(C)C5=O)CC3)nc(N)c2cc1OC [Example 24]
- Acute Toxicity, number of dead animals/number of tested animals (Mouse; 1 g/Kg P.O.): 0/5
- Acute Toxicity, number of dead animals/number of tested animals (Mouse; 3 g/Kg P.O.): 0/5
- change in vivo at 1 mg/kg [2, 3]: -7.2%
- change in vivo at 1 mg/kg [2, 4]: -24.8%
- change in vivo at 1 mg/kg [2, 5]: -28.6%
- change in vivo at 1 mg/kg [2, 6]: -8.7%
- Change (%) in heart rate ([2]; SHR, oral 1 mg/Kg): +12.0%
- Acute Toxicity, number of dead animals/number of tested animals (Rat; 1 g/Kg P.O.): 0/5
- Acute Toxicity, number of dead animals/number of tested animals (Rat; 3 g/Kg P.O.): 0/5

Compound: COc1cc2nc(N3CCN(C(=O)c4ccco4)CC3)nc(N)c2cc1OC [Prazosin, prazosin, reference compound]
- Acute Toxicity, number of dead animals/number of tested animals (Mouse; 1 g/Kg P.O.): 0/5
- Acute Toxicity, number of dead animals/number of tested animals (Mouse; 3 g/Kg P.O.): 0/5
- change in vivo at 1 mg/kg ([2]; po, 1 h, read-out: Antihypertensive effects, change (%) in blood pressure, 1 hour later): -23.6%
- change in vivo at 1 mg/kg ([2]; po, 3 h, read-out: Antihypertensive effects, change (%) in blood pressure, 3 hours later): -25.1%
- change in vivo at 1 mg/kg ([2]; po, 6 h, read-out: Antihypertensive effects, change (%) in blood pressure, 6 hours later): -24.6%
- change in vivo at 1 mg/kg ([2]; po, 24 h, read-out: Antihypertensive effects, change (%) in blood pressure, 24 hours later): -5%
- Change (%) in heart rate ([2]; SHR, oral 1 mg/Kg): +8.0%
- Acute Toxicity, number of dead animals/number of tested animals (Rat; 1 g/Kg P.O.): 0/5
- Acute Toxicity, number of dead animals/number of tested animals (Rat; 3 g/Kg P.O.): 0/3

Compound: COc1cc2nc(N3CCN(c4ncc5c(=O)n(C)ccc5n4)CC3)nc(N)c2cc1OC [Example 4]
- Acute Toxicity, number of dead animals/number of tested animals (Mouse; 1 g/Kg P.O.): 0/5
- Acute Toxicity, number of dead animals/number of tested animals (Mouse; 3 g/Kg P.O.): 0/5
- change in vivo at 1 mg/kg [2, 3]: -4.4%
- change in vivo at 1 mg/kg [2, 4]: -22.1%
- change in vivo at 1 mg/kg [2, 5]: -26.5%
- change in vivo at 1 mg/kg [2, 6]: -16.7%
- Change (%) in heart rate ([2]; SHR, oral 1 mg/Kg): +5.7%
- Acute Toxicity, number of dead animals/number of tested animals (Rat; 1 g/Kg P.O.): 0/5
- Acute Toxicity, number of dead animals/number of tested animals (Rat; 3 g/Kg P.O.): 0/5
